# Experiments:
# Assay type in all cases: functional
# Onchocerca lienalis [1] = test: MMV: Percent motility assay at a compound concentration of 1.25e-5 M. Activity score legend: 3: Active, 2: Moderately active; 1: Inactive, 0: Toxic; details: at 12.5 µM
# Onchocerca lienalis [2] = test: MMV: Percent motility assay at a compound concentration of 3.1e-6 M. Activity score legend: 3: Active, 2: Moderately active; 1: Inactive, 0: Toxic; details: at 3.1 µM
# Onchocerca lienalis [3] = test: MMV: Percent motility assay at a compound concentration of 1.9e-7 M. Activity score legend: 3: Active, 2: Moderately active; 1: Inactive, 0: Toxic; details: at 0.19 µM
# Onchocerca lienalis [4] = test: MMV: Percent motility assay at a compound concentration of 7.8e-7 M. Activity score legend: 3: Active, 2: Moderately active; 1: Inactive, 0: Toxic; details: at 0.78 µM
Compound,Motility (Onchocerca lienalis [1]) [%],Motility (Onchocerca lienalis [2]) [%],Motility (Onchocerca lienalis [3]) [%],Motility (Onchocerca lienalis [4]) [%]
CCOc1cc2c(cc1OCC)C(c1cc(Cl)ccc1O)NCC2 (centres undefined),100,100,100,100
COc1ccc(C2C(C(=O)Nc3cccc(OC)c3)c3ccccc3C(=O)N2C2CCCCC2)cc1 (centres undefined),100,100,100,100
c1ccc2c(NCCc3c[nH]c4ccccc34)c3ccccc3nc2c1,100,100,100,100
CCN(CC)CCCNc1ccnc2cc3ccccc3cc12,100,100,100,100
O=C(Nc1ccc(-c2nc3cc4ccccc4cc3[nH]2)cc1)c1cccc(Br)c1,100,100,100,100
Cc1ccc(-c2nc3ccccc3o2)cc1NCc1cc(Cc2ccccc2)ccc1O,100,100,100,100
COc1cccc(C(=O)NC(c2ccc(C)cc2)c2cc(Cl)c3cccnc3c2O)c1 (centres undefined),0,33.33,100,100
COc1ccc(C(O)(CCC(C)C)C(CN2CCOCC2)c2ccc(Cl)cc2)cc1.Cl (centres undefined),100,100,100,100
CCCOCc1cc(CN2CCN(c3cccc(Cl)c3)CC2)c(O)c2ncccc12,100,100,100,100
O=C(Cc1ccccc1)NC(c1ccc(Cl)cc1)c1c(O)ccc2ccccc12 (centres undefined),100,100,100,100
CCOc1ccc2c(c1)CN(Cc1ccc(Cl)cc1)CO2,100,100,100,100
COc1ccc(C(=O)NC(c2ccccc2Cl)c2cc(Cl)c3cccnc3c2O)cc1 (centres undefined),100,100,100,100
Cc1cccc(N2C(=O)C3C(C2=O)C2(c4ccccc4)C(=O)C3(c3ccccc3)C(c3ccc4c(c3)OCO4)=C2c2ccc3c(c2)OCO3)c1 (centres undefined),100,100,100,100
CCCc1c(C)nc2ccc(Br)cc2c1O,100,100,100,100
Cc1ccc(F)cc1NC(=O)c1cc(Cl)ccc1Nc1ccccc1,100,100,100,100
CCOc1ccc(Nc2c3ccccc3nc3ccccc23)cc1.Cl,100,100,100,100
CCCCCCc1cc2cc(-c3nc4ccccc4[nH]3)c(=Nc3ccccc3C)oc2cc1O,100,100,100,100
CCCCCCC(O)(c1ccc(F)cc1)C(CN1CCOCC1)c1ccccc1.Cl (centres undefined),100,100,100,100
COc1cc(OC)cc(N2C(=O)N(Cc3ccc(C(C)(C)C)cc3)c3ccccc3S2(=O)=O)c1,33.33,100,100,100
CCOc1c(Br)cc(C2C(C(=O)OC)=CN(C)C=C2C(=O)OC)cc1OC,100,100,100,100
COc1ccc2sc(N(Cc3cccnc3)C(=O)c3ccc(C#N)cc3)nc2c1,100,100,100,100
CC1CC2=C(CC1CNCCCN(C)C)C(C)(C)CCC2 (centres undefined),100,100,100,100
CN(C)c1ccc(N=Cc2ccc(N3CCOCC3)cc2)cc1,93.33,100,100,100
COc1ccccc1N1C(=N)SC(=Cc2ccc(OCc3ccccc3F)cc2)C1=O,100,100,100,100
CCOC(=O)c1c[nH]c2c(CC)cccc2c1=O,100,100,100,100
CCCCc1c(CCC)c(=N)c2ccccc2n1C.I,100,100,100,100

# Source: ChEMBL document CHEMBL3137381, “MMV Box Onchocerca lienalis screening set”
